For data set [1], the system named is Mouse collagen-induced arthritis. Put plainly: Therapeutic mouse collagen-induced arthritis (mCIA). The data set is classed as in vivo. The text has this:
Mouse Collagen-induced arthritis is a commonly used chronic, preclinical model of rheumatoid arthritis in which joint swelling and bone destruction occur following immunization with type II collagen. Reduction of disease incidence and severity has been shown previously to be predictive of disease-modification and signs and symptoms mitigation, respectively, in a clinical setting.
In the therapeutic mCIA model, induction of disease incidence and severity was synchronized via LPS stimulation. Male DBA/J mice were immunized with 100 ug of bovine type II collagen (bCII) on day 0. All mice received an intraperitoneal injection of 20 μg of LPS on day 28 and disease was allowed to develop through day 34. At day 34, all mice had disease (incidence=100%) with an average severity score of seven. Dosing of compounds was initiated in the therapeutic mode on day 34 and continued through day 49. Different treatments were compared by measuring the decrease in incidence (i.e., resolution of disease) and the decrease in severity of paw swelling over time.
(§1) ED50 and ED80 values are obtained for the various parameters using four-parameter logistic fits of data. For each experiment/dose group, outliers are detected by calculating the number of standard deviations each mouse's value was from the mean of their group and then dividing by the standard deviation of the group. The means and standard deviations used in this calculation omitted the value being examined so that, if it were an outlier, it would have no influence. If the value being examined is more than 2.5 standard deviations from the mean, it was not used in the rest of the calculations.
(§2) Percent inhibition values are then calculated for each animal using the means of the vehicle and 10 mpk prednisone control groups. The individual mouse percent inhibition values are then fit to a four-parameter logistic model using the area under curve mean for each group. Since all four parameters are estimated and the lower plateau is not fixed at 0% and the upper plateau was not fixed at 100%, the ED50 and ED80 values are calculated by using an inverse calibration formula for a response equal to 50% or 80%. The designation “nd” means not determined.

Another data set has as its system LPS-induced TNFα. Briefly: 28-day mouse side-effect model, LPS-induced serum TNFα suppression. The format is in vivo. The following applies: oral gavage 28 days, LPS challenge; for ED50: 672 h, read-out: TNFα Suppression (ED50 dose). The method, then:
(§3) 10-12 week old female Swiss Webster mice (Taconic, Germantown, N.Y., U.S.A.) weighing 27-29 grams are used in accordance with the guidelines of the Institutional Animal Care and Use Committee and in accordance with NIH guidelines on laboratory animal welfare. Mice are acclimated to the Pfizer animal facility for 3-7 days prior to being placed on study. Prednisolone and DAGR compounds are administered by oral gavage for a total of 28 days. Each treatment group generally contains 8-10 mice. To establish a dosing regimen for the studies, a pilot pharmacodynamic time course experiment is conducted to quantify TNFa repression after a single ED80 dose (determined from the acute LPS endotoxemia mouse model). […] DAGR compounds vary in their required frequency of doses.
(§4) Body weights are measured on the first and last day of each experiment. Blood samples are obtained after ˜3 weeks of dosing for steady-state pharmacokinetic analysis. To assess compound effects on LPS-induced TNF-a, all mice receive an intraperitoneal injection of LPS (Salmonella Typhosa, Sigma, St. Louis, L-7895) 2.5 hr after the last dose on day 28. Mice are sacrificed 90 min. after LPS administration. Serum samples are assayed for osteocalcin and TNFa using the Linco multiplex assay (St. Charles, Mo.) and Luminex 100 (Austin, Tex.). Samples are diluted 1:20 and the assay is run according to manufacturer's instructions. An osteocalcin standard is purchased separately from Biomedical Technologies Incorporated (Stoughton, Mass.). Serum insulin is measured to assess compound effects on insulin resistance. Insulin was measured using the UltraSensitive Mouse EIA kit from Alpco Diagnostics (Salem, N.H.) following the manufacturer's protocol.
as §1, §2

The test system of the next data set is osteocalcin. Briefly: 28-day mouse side-effect model, serum osteocalcin suppression. The data set is classed as in vivo. The note with it: oral gavage 28 days; for ED50 at 28 days: female, Swiss Webster, read-out: Osteocalcin Suppression (ED50 dose). Here is the method:
as §3, §4, §1, §2

The test system of the next data set is bone formation rate. Put plainly: 28-day mouse side-effect model, cortical bone histomorphometry (bone formation rate). The data set is classed as in vivo. The following applies: oral gavage 28 days, tibia cortical bone formation rate; for ED50 at 28 days: female, Swiss Webster, read-out: BFR (ED50 dose). The method, then:
as §3
During the in-life portion of each study, mice received two IP injections of the fluorochrome calcein (C-0875; Sigma-Aldrich; 20 mg/kg; 200 μL/mouse), dissolved in 2% sodium bicarbonate, on days 1 and 26 for bone histomorphometry measurements. Fluorochrome labels incorporate into the bone mineral and allow measurement of bone formation rate. During the tissue harvest, the left tibia is excised and cleaned for cortical histomorphometry measurements. After all skin and muscle are removed, tibiae are placed in 70% ethanol (4° C.) in the dark for a minimum of 24 hours.
Ground transverse sections are used for histomorphometric analysis of cortical bone^1. Bones are sectioned using a low speed saw (Isomet, Buehler, Lake Bluff, Ill.) equipped with a diamond wafer blade. The end of each tibia is removed proximal to tibia-fibula synostosis and a […] cross-section is cut. Using a roughened glass plate and a cork, sections are ground to […] until transparent and all labels distinguishable under a fluorescent microscope. Sections are dehydrated using the following solutions for a minimum of 2 minutes each: 1) 70% ethanol, 2) 95% ethanol, 3) 100% ethanol, 4) 50/50 ethanol/xylene, and 5) xylene (twice) (Sigma, St. Louis, 534056). Sections are mounted using Eukitt Quick Mounting Medium (Sigma, St. Louis, 03989) and cover-slipped. Using the Osteomeasure Bone Analysis Program (Decatur, Ga.), bone formation rate is calculated by tracing the 1st and 2nd fluorescent labels in addition to tracing the inner and outer perimeter of the bone. Bone formation rate is calculated by the following equation: (Interlabel Width/Label Interval)*(Labeled Perimeter/Bone Perimeter). At least 5 samples are measured from each treatment group in each study.
as §1, §2

A further data set concerns serum insulin. Put plainly: 28-day mouse side-effect model, serum insulin. The following applies: oral gavage 28 days; for ED50 at 28 days: female, Swiss Webster, read-out: Insulin (ED50 dose). The format is in vivo. The method, then: as §3, §4, §1, §2
The test system of a further data set is IFNγ. Briefly: LPS-induced human whole blood, IFNγ release. The format is cell-based. The note with it: Homo sapiens, mean of donors. Here is the method:
(§5) Venous blood from human donors was collected as 10 ml aliquots in tubes containing sodium heparin (BD Vacutainer from Becton Dickinson and Company, Franklin Lakes, N.Y.). Blood was added to sterile polystyrene round bottom 96-well tissue culture plates (Corning Costar) at 180 Blood was placed in a humidified 37 C incubator with 5% CO2 while compounds were prepared (nearly 60 minutes).
(§6) Compounds were prepared from 10 mM stock solutions in dimethylsulfoxide (DMSO, Sigma-Aldrich). Stock compound was diluted in DMSO to give appropriate starting concentration then diluted serially 1/3 in DMSO (i.e. 15 μl compound+30 μl DMSO), followed by diluting each serial dilution 1/167 into vehicle solution (2% DMSO in phosphate buffered saline (Dulbecco's Phosphate Buffered Saline without calcium chloride without magnesium chloride, Invitrogen Corporation, Carlsbad Calif.)). Compound or vehicle was added to blood in 10 μl aliquots as triplicates, omitting the outside wells to minimize possible edge effects. The final highest concentration of each compound in the assay ranged from 3 to 0.3 μM. Final DMSO concentration in the assay was 0.1%. The plate containing the samples was gently vortexed to mix and replaced in the incubator. LPS stock (E. coli serotype 0111:B4, Sigma-Aldrich), stored in aliquots of 100 μg/ml in RPMI at −20° C., was diluted […] in RPMI to make a working stock solution. After 60 minutes of incubation, 10 μl of the prepared LPS working stock was added to the blood to a final concentration of 100 ng/ml. Wells to be used as negative control received RPMI media with no LPS. The plate was again gently vortexed and the plates incubated overnight for 22 hours. Following incubation, the blood was centrifuged at 1500×g for 5 minutes and the plasma removed to either freeze at −20° C. or assay for cytokine release.
(§7) IL-1β, IFNγ and TNFα protein levels were measured using Meso Scale assay kits (Meso Scale Discovery, Gaithersburg, Md., U.S.A.). Reagents were allowed to come to room temperature. Meso Scale plates were blocked with 150 μl of Meso Scale Block B diluent, gently shaking at room temperature for 60 minutes. Plates were washed 3× with wash buffer (PBS, Invitrogen Corporation, with 0.05% Tween-20, Sigma-Aldrich). Calibrators for standard curves were prepared in human plasma/serum assay diluent as a 1/5 serial dilution to achieve final concentrations ranging from 50000 pg/ml to 3.2 pg/ml. Samples were added at 10 to 20 μl/well and calibrators were added at 20 μl/well then incubated at room temperature with gentle shaking for 2 hours. Plates were again washed 3× with wash buffer. Detection antibody was diluted in human plasma/serum antibody diluent to 1 μg/ml and added to the plate at 20 μl/well. Plates were incubated as before for 2 hours and washed again. Read Buffer T (4×) was diluted 1:1 with mqH20 to 2× concentration and 150 μl added to each well. Plates were read on the SECTOR Imager 6000 (Meso Scale Discovery) to generate raw signal values.
(§8) Individual sample signal values were compared to positive and negative controls (vehicle treated blood with LPS and vehicle treated blood without LPS, respectively) to generate % inhibition. Triplicate values were averaged for each donor. The values for three or four donors were averaged and graphed using 4-parameter fit curves in the LabStats plug-in for the Microsoft Excel application.

In another data set the test system is TNFα. Briefly: LPS-induced human whole blood, TNFα release. The format is cell-based. The following applies: Homo sapiens, mean of donors. Here is the method: as §5, §6, §7, §8
In another data set the test system is IL-1β. Put plainly: LPS-induced human whole blood, IL-1β release. The format is cell-based. The note with it: Homo sapiens, mean of donors. Here is the method: as §5, §6, §7, §8
The next data set has as its system IL-6. Briefly: LPS-induced human whole blood, IL-6 release. The note with it: mean of donors. The format is cell-based.

As a reminder, the ED50 is the dose at which the effect has come halfway, by size or by number of responders. As for `Cc1ncccc1NC(=O)c1ccc2c(c1)CC[C@@H]1C[C@@](O)(C(F)(F)F)[C@](C)(O)C[C@@]21Cc1ccccc1` [Comparator E, (4bR,6R,7S,8aR)-4b-benzyl-6,7-dihydroxy-6-methyl-N-(2-methylpyridin-3-yl)-7-(trifluoromethyl)-4b,5,6,7,8,8a,9,10-octahydrophenanthrene-2-carboxamide], in data set [1] (816 h, dosing day 34 to 49, read-out: Therapeutic mCIA (ED50 dose)), the ED50 was found to be 0.13 mg/kg. In addition, the “Therapeutic mCIA (ED80 dose)” value in [1] (dosing day 34 to 49) is on record as 1.15. In addition, in the data set with LPS-induced TNFα, the ED50 is above 1 mg/kg and the “TNFα Suppression (ED80 dose)” value was above 1. Also, in the data set on osteocalcin, the ED50 at 28 days was found to be 0.78 mg/kg and the “Osteocalcin Suppression (ED80 dose)” value is above 1. In the data set on bone formation rate, the ED50 at 28 days is 0.28 mg/kg and the “BFR (ED80 dose)” value is 0.33. Further, in the data set on serum insulin, the ED50 at 28 days is above 1 mg/kg and the “Insulin (ED80 dose)” value is on record as above 1.
Broadly, the inhibition is the relative decrease from the control value, in per cent. In the case of `Cc1ncccc1CNC(=O)c1ccc2c(c1)CC[C@@H]1C[C@@](O)(CCC(F)(F)F)CC[C@@]21Cc1ccccc1` [Comparator A, (4βS,7S,8αR)-4β-benzyl-7-hydroxy-N-((2-methylpyridin-3-yl)methyl)-7-(3,3,3-trifluoropropyl)-4β,5,6,7,8,8α,9,10-octahydrophenanthrene-2-carboxamide], the inhibition at 0.00137174 µM worked out at 18.1% in the data set on IFNγ (1.371742 nM), 18.1% in the data set with TNFα (1.371742 nM), 32% in the data set on IL-1β (1.371742 nM) and 1.46% with IL-6 (1.371742 nM). Moreover, the inhibition at 0.00411523 µM in the data set on IFNγ (4.115226 nM) was -1.7%; in the data set with TNFα (4.115226 nM), -0.861%; in the data set with IL-1β (4.115226 nM), 22%; with IL-6 (4.115226 nM), -4.34%. Further, the inhibition at 0.0123457 µM with IFNγ (12.34568 nM) is 0.016%; in the data set with TNFα (12.34568 nM), 0.0309%; in the data set with IL-1β (12.34568 nM), 22.8%; in the data set on IL-6 (12.34568 nM), -1.13%. Further, the inhibition at 0.037037 µM with IFNγ (37.03704 nM) is -9.81%; in the data set with TNFα (37.03704 nM), -4.19%; in the data set with IL-1β (37.03704 nM) it was 17.3%; in the data set on IL-6 (37.03704 nM), -3.52%. In addition, the inhibition at 0.111111 µM was 8.74% in the data set with IFNγ (111.1111 nM), -3.82% with TNFα (111.1111 nM), 8.6% in the data set on IL-1β (111.1111 nM) and -3.5% in the data set with IL-6 (111.1111 nM). Besides, the inhibition at 0.333333 µM in the data set with IFNγ (333.3333 nM) was -6.32%; in the data set with TNFα (333.3333 nM), -4.61%; in the data set on IL-1β (333.3333 nM), 12.2%; in the data set with IL-6 (333.3333 nM) it was -2.83%. Besides, the inhibition at 1 µM in the data set with IFNγ (1000 nM) was 16.5%; in the data set with TNFα (1000 nM), -5.44%; in the data set with IL-1β (1000 nM) it was 15%; in the data set with IL-6 (1000 nM) it was -0.89%. Also, the inhibition at 3 µM in the data set on IFNγ (3000 nM) was 28%; in the data set with TNFα (3000 nM) it was -3.04%; in the data set on IL-1β (3000 nM) it was 16.4%; in the data set with IL-6 (3000 nM), -1.97%.
Turning to `C[C@@]1(O)C[C@@]2(Cc3ccccc3)c3ccc(C(=O)NCc4cccnc4)cc3CC[C@@H]2C[C@@]1(O)c1ccccc1` [Comparator D, (4bR,6R,7R,8aR)-4b-benzyl-6,7-dihydroxy-6-methyl-7-phenyl-N-(pyridin-3-ylmethyl)-4b,5,6,7,8,8a,9,10-octahydrophenanthrene-2-carboxamide], in the data set on LPS-induced TNFα, the ED50 is 11.4 mg/kg and the “TNFα Suppression (ED80 dose)” value is on record as 14.48. In the data set on osteocalcin, the ED50 at 28 days is above 60 mg/kg and the “Osteocalcin Suppression (ED80 dose)” value is on record as above 60. Also, in the data set with bone formation rate, the ED50 at 28 days is 35.9 mg/kg and the “BFR (ED80 dose)” value was above 60. Also, in the data set on serum insulin, the ED50 at 28 days is above 60 mg/kg and the “Insulin (ED80 dose)” value is above 60.

Values taken from patent US8552035B2, “Phenanthrenone compounds, compositions and methods” (Pfizer Inc., priority 2008, dated 2013).
